Consider one compound from US12076331B2, “Inositol derivatives for use in pathological crystallization” (ETH Zurich, priority 2015, dated 2024).

The conditions of series [1]: reported, Schantl et al. 2020; cited from earlier work.
Series [2] concerns RPTEC/TERT 1 human proximal tubule cells. Kind of series: CaP-induced CaOx crystallization on RPTEC monolayers. Conditions: CaP-induced model, 1.2 mM oxalate, 4 h. The series is classed as cell-based. How it is done: For the assessment of CaP-induced CaOx crystallization, after 24 h of incubation, Ca/P spiked medium was removed, and cells were washed twice with PBS. Subsequently, medium containing 1.2 mM oxalate and compound was added to each well. After 4 h of incubation at 37° C. and 5% CO2 treatment was removed, and cells washed once with PBS before staining.
For staining, ProxUp basal medium was mixed with calcein (500 nM final concentration), EthD (6 μM final concentration), CellMask stain ([…]) and Hoechst 33342. Staining mixture was added to RPTEC and cells were incubated for 30 min in the dark at 37° C. and 5% CO2. Staining solution was removed, cells were washed with PBS once and ProxUp basal medium was added. Cells were immediately imaged after staining. […] For quantification 3 wells/condition were prepared and 3 images/well were taken. […]
To allow rapid profiling of molecules for their effects on diverse kidney calcification processes, the inventors developed a cell-based assay that allowed the monitoring of CaP deposition, as well as cellular changes associated with it. Therefore, the inventors utilized monolayers of renal proximal tubular cells (RPTEC) stained with various dyes to quantify calcification and cell morphology changes (FIG. 3). […] CaP deposits were detected via calcein staining (FIG. 3B). […]

Series [3] relates to high phosphate-induced kidney damage. Kind of series: mouse model of high phosphate-induced kidney damage. Conditions: 100 mg/kg 3 times/week subcutaneously, high phosphate diet, vs vehicle. Type of series: in vivo, C57BL/6 male mice. As for the experimental part:
C57BL/6 male were placed on either regular diet containing 0.35% inorganic phosphate (NP) or high phosphate diet containing 2.0% inorganic phosphate (HP). These mice were subcutaneously injected with either (OEG2)2-IP4 (100 mg/kg) or vehicle (distilled water) three times a week and then sacrificed at 20 weeks of age to harvest their blood and kidneys. Relative mRNA levels of (A) Spp1, (B) IL36a, (C) Ngal, (D) MMP3 and (E) Col1a1 in kidney tissue homogenate are shown (mean±SD, N=7, except HP vehicle group N=6, two-way ANOVA with Sidak's multiple comparison between (OEG2)2-IP4 vs. vehicle control within the respective diet group, ns—not significant, * p<0.05). […]
C57BL/6 male mice (12 weeks of age) were placed on either regular diet containing 0.35% inorganic phosphate or high phosphate diet containing 2.0% inorganic phosphate. […] Serum FGF23 levels were measured using intact FGF23 ELISA (Kinos) according to the manufacturers' protocols. Serum and urine levels of phosphate were measured using Fuji Dri-Chem slides and the analyzer (Dri-Chem NX500V, Fuji, Tokyo, Japan). […] Quantitative RT-PCR reactions were performed using 20 ng of cDNA incubated with 410 nM of each primer and 6 μL of SYBR Green PCR Master mix (Toyoba, Osaka, Japan THUNDERBIRD SYBR qPCR Mix QPS-201) in a total volume of 12 μl. […] The cortex and the cortico-medullary junction were evaluated separately. […]

Regarding `COCCOCCO[C@@H]1C(OP(=O)(O)O)[C@H](OCCOCCOC)[C@@H](OP(=O)(O)O)C(OP(=O)(O)O)[C@H]1OP(=O)(O)O` (some centres unmarked) [(OEG2)2-IP4], in series [1], the pharmacokinetic profile entry is reported as “favorable”. Also, in series [2], the “CaP-induced CaOx crystallization” value is recorded as “reduced” and the “concentration at which COD was almost entirely abolished” value was determined as 100 µM. Further, in series [3], the “fibrosis, collagen volume fraction (Picro-Sirius red staining of the kidneys)” value was “significantly reduces fibrosis”; the “kidney damage and fibrosis markers (Spp1, IL36a, Ngal, MMP3, Col1a1 mRNA)” value is “significantly reduced”.
